Test results as given in patent US20150105252A1, “SUBSTITUTED PYRAZOLES AS HERBICIDES” (E I DU PONT DE NEMOURS AND COMPANY, priority 2013, published 2015).

Legend:
field poppy = assay: Test D preemergence; assay type: in vivo, Papaver rhoeas; conditions: Preemergence, scale 0 to 100
How it was run: (§1)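 Seeds are planted in silt loam and treated preemergence, while parallel plantings in a peat moss/vermiculite medium with starter nutrients receive postemergence sprays at the 1- to 4-leaf stage. All formulations use a non-phytotoxic solvent mixture with surfactant. Plants are kept in a controlled growth environment and rated visually after 14–21 days.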

blackgrass = assay: Test D postemergence; assay type: in vivo, Alopecurus myosuroides; conditions: scale 0 to 100
How it was run: as §1

barley, winter [1] = assay: Test D preemergence; assay type: in vivo, Hordeum vulgare; conditions: Preemergence, scale 0 to 100
How it was run: as §1

barley, spring [2] = assay: Test D preemergence; assay type: in vivo, Hordeum vulgare; conditions: Preemergence, scale 0 to 100
How it was run: as §1

buckwheat, wild [3] = assay: Test D postemergence; assay type: in vivo, Polygonum convolvulus; conditions: scale 0 to 100
How it was run: as §1

mustard, wild = assay: Test D preemergence; assay type: in vivo, Sinapis arvensis; conditions: Preemergence, scale 0 to 100
How it was run: as §1

foxtail, green [4] = assay: Test D preemergence; assay type: in vivo, Setaria viridis; conditions: Preemergence, scale 0 to 100
How it was run: as §1

field violet = assay: Test D preemergence; assay type: in vivo, Viola arvensis; conditions: Preemergence, scale 0 to 100
How it was run: as §1

foxtail, green [5] = assay: Test D postemergence; assay type: in vivo, Setaria viridis; conditions: scale 0 to 100
How it was run: as §1

chickweed = assay: Test D preemergence; assay type: in vivo, Stellaria media; conditions: Preemergence, scale 0 to 100
How it was run: as §1

kochia = assay: Test D postemergence; assay type: in vivo, Kochia scoparia; conditions: scale 0 to 100
How it was run: as §1

windgrass = assay: Test D preemergence; assay type: in vivo, Apera spica-venti; conditions: Preemergence, scale 0 to 100
How it was run: as §1

buckwheat, wild [6] = assay: Test D preemergence; assay type: in vivo, Polygonum convolvulus; conditions: Preemergence, scale 0 to 100
How it was run: as §1

wheat, winter = assay: Test D preemergence; assay type: in vivo, Triticum aestivum; conditions: Preemergence, scale 0 to 100
How it was run: as §1

wheat, spring = assay: Test D preemergence; assay type: in vivo, Triticum aestivum; conditions: Preemergence, scale 0 to 100
How it was run: as §1

pigweed = assay: Test D postemergence; assay type: in vivo, Amaranthus retroflexus; conditions: scale 0 to 100
How it was run: as §1

deadnettle = assay: Test D preemergence; assay type: in vivo, Lamium amplexicaule; conditions: Preemergence, scale 0 to 100
How it was run: as §1

canarygrass = assay: Test D preemergence; assay type: in vivo, Phalaris minor; conditions: Preemergence, scale 0 to 100
How it was run: as §1

barley, winter [7] = assay: Test D postemergence; assay type: in vivo, Hordeum vulgare; conditions: scale 0 to 100
How it was run: as §1

barley, spring [8] = assay: Test D postemergence; assay type: in vivo, Hordeum vulgare; conditions: scale 0 to 100
How it was run: as §1

Structure (SMILES): CCc1cc(C(=O)NCC(F)(F)F)nn1Cc1ccnc(SC(F)(F)F)c1 [Compound 214]
- Plant response rating, Field Poppy (field poppy; 62 g ai/ha): 100
- Plant response rating, Field Poppy (field poppy; 125 g ai/ha): 100
- Plant response rating, Field Poppy (field poppy; 250 g ai/ha): 100
- Blackgrass plant response rating (blackgrass; Postemergence, 31 g ai/ha): 15
- Blackgrass plant response rating (blackgrass; Postemergence, 125 g ai/ha): 20
- Blackgrass plant response rating (blackgrass; Postemergence, 250 g ai/ha): 70
- Blackgrass plant response rating (blackgrass; postemergence, 62 g ai/ha): 15
- Plant response rating, Barley, Winter (barley, winter [1]; 31 g ai/ha): 15
- Plant response rating, Barley, Winter (barley, winter [1]; 62 g ai/ha): 35
- Plant response rating, Barley, Winter (barley, winter [1]; 125 g ai/ha): 55
- Plant response rating, Barley, Winter (barley, winter [1]; 250 g ai/ha): 65
- Plant response rating, Barley, Spring (barley, spring [2]; 31 g ai/ha): 10
- Plant response rating, Barley, Spring (barley, spring [2]; 62 g ai/ha): 40
- Plant response rating, Barley, Spring (barley, spring [2]; 125 g ai/ha): 65
- Plant response rating, Barley, Spring (barley, spring [2]; 250 g ai/ha): 80
- Buckwheat, Wild plant response rating (buckwheat, wild [3]; Postemergence, 31 g ai/ha): 70
- Buckwheat, Wild plant response rating (buckwheat, wild [3]; Postemergence, 125 g ai/ha): 70
- Buckwheat, Wild plant response rating (buckwheat, wild [3]; Postemergence, 250 g ai/ha): 80
- Buckwheat, Wild plant response rating (buckwheat, wild [3]; postemergence, 62 g ai/ha): 70
- Plant response rating, Mustard, Wild (mustard, wild; 62 g ai/ha): 100
- Plant response rating, Mustard, Wild (mustard, wild; 125 g ai/ha): 100
- Plant response rating, Mustard, Wild (mustard, wild; 250 g ai/ha): 100
- Plant response rating, Foxtail, Green (foxtail, green [4]; 62 g ai/ha): 100
- Plant response rating, Foxtail, Green (foxtail, green [4]; 125 g ai/ha): 100
- Plant response rating, Foxtail, Green (foxtail, green [4]; 250 g ai/ha): 100
- Plant response rating, Field Violet (field violet; 62 g ai/ha): 100
- Plant response rating, Field Violet (field violet; 125 g ai/ha): 100
- Plant response rating, Field Violet (field violet; 250 g ai/ha): 100
- Foxtail, Green plant response rating (foxtail, green [5]; Postemergence, 31 g ai/ha): 15
- Foxtail, Green plant response rating (foxtail, green [5]; Postemergence, 125 g ai/ha): 35
- Foxtail, Green plant response rating (foxtail, green [5]; Postemergence, 250 g ai/ha): 60
- Foxtail, Green plant response rating (foxtail, green [5]; postemergence, 62 g ai/ha): 15
- Plant response rating, Chickweed (chickweed; 31 g ai/ha): 90
- Plant response rating, Chickweed (chickweed; 62 g ai/ha): 75
- Plant response rating, Chickweed (chickweed; 125 g ai/ha): 100
- Plant response rating, Chickweed (chickweed; 250 g ai/ha): 100
- Kochia plant response rating (kochia; Postemergence, 31 g ai/ha): 70
- Kochia plant response rating (kochia; Postemergence, 125 g ai/ha): 80
- Kochia plant response rating (kochia; Postemergence, 250 g ai/ha): 85
- Kochia plant response rating (kochia; postemergence, 62 g ai/ha): 70
- Plant response rating, Windgrass (windgrass; 62 g ai/ha): 85
- Plant response rating, Windgrass (windgrass; 125 g ai/ha): 90
- Plant response rating, Windgrass (windgrass; 250 g ai/ha): 100
- Plant response rating, Buckwheat, Wild (buckwheat, wild [6]; 31 g ai/ha): 35
- Plant response rating, Buckwheat, Wild (buckwheat, wild [6]; 62 g ai/ha): 95
- Plant response rating, Buckwheat, Wild (buckwheat, wild [6]; 125 g ai/ha): 90
- Plant response rating, Buckwheat, Wild (buckwheat, wild [6]; 250 g ai/ha): 100
- Plant response rating, Wheat, Winter (wheat, winter; 62 g ai/ha): 15
- Plant response rating, Wheat, Winter (wheat, winter; 125 g ai/ha): 55
- Plant response rating, Wheat, Winter (wheat, winter; 250 g ai/ha): 75
- Plant response rating, Wheat, Spring (wheat, spring; 62 g ai/ha): 10
- Plant response rating, Wheat, Spring (wheat, spring; 125 g ai/ha): 40
- Plant response rating, Wheat, Spring (wheat, spring; 250 g ai/ha): 75
- Pigweed plant response rating (pigweed; Postemergence, 31 g ai/ha): 90
- Pigweed plant response rating (pigweed; Postemergence, 125 g ai/ha): 90
- Pigweed plant response rating (pigweed; Postemergence, 250 g ai/ha): 95
- Pigweed plant response rating (pigweed; postemergence, 62 g ai/ha): 90
- Plant response rating, Deadnettle (deadnettle; 31 g ai/ha): 90
- Plant response rating, Deadnettle (deadnettle; 62 g ai/ha): 100
- Plant response rating, Deadnettle (deadnettle; 125 g ai/ha): 100
- Plant response rating, Deadnettle (deadnettle; 250 g ai/ha): 100
- Plant response rating, Canarygrass (canarygrass; 31 g ai/ha): 40
- Plant response rating, Canarygrass (canarygrass; 62 g ai/ha): 65
- Plant response rating, Canarygrass (canarygrass; 125 g ai/ha): 100
- Plant response rating, Canarygrass (canarygrass; 250 g ai/ha): 100
- Barley, Winter plant response rating (barley, winter [7]; Postemergence, 31 g ai/ha): 20
- Barley, Winter plant response rating (barley, winter [7]; Postemergence, 125 g ai/ha): 30
- Barley, Winter plant response rating (barley, winter [7]; Postemergence, 250 g ai/ha): 35
- Barley, Winter plant response rating (barley, winter [7]; postemergence, 62 g ai/ha): 20
- Barley, Spring plant response rating (barley, spring [8]; Postemergence, 31 g ai/ha): 15
- Barley, Spring plant response rating (barley, spring [8]; Postemergence, 125 g ai/ha): 20
- Barley, Spring plant response rating (barley, spring [8]; Postemergence, 250 g ai/ha): 40
- Barley, Spring plant response rating (barley, spring [8]; postemergence, 62 g ai/ha): 15
